Data on 13 compounds can be found in US11129782B2, “Derivatives of PPD useful for coloring hair and skin” (National University of Singapore, priority 2017, dated 2021).

The subject of one data set is HaCaT cells. Briefly: In vitro cell cytotoxicity (MTT) assay on HaCaT cells. The data set is classed as cell-based, human. From the text:
HaCaT (human, adult, low calcium, high temperature, human adult skin keratinocytes) cells were obtained from the IMB (Institute of Medical Biology) Skin Cell Bank. Fetal bovine serum (FBS), Dulbecco's minimum essential medium (DMEM) and trypsin EDTA solution were purchased from GE healthcare life sciences, Utah. Penicillin/streptomycin, dimethyl sulfoxide (DMSO), and phosphate buffered saline (PBS) were from Fisher Scientific (Singapore). Para-phenylenediamine (PPD) was purchased from Sigma Aldrich (Singapore). PPD analogues such as Dimer, trimer, ethyl hexyl para-phenylenediamine (EHPPD), hexyl para-phenylenediamine (HPPD), Bandrowski base (BB) were synthesized in house.
Cell viability was essentially determined using the MTT assay as described in the literature. The HaCaT cells were grown in DMEM with 10% FBS and 1% penicillin/streptomycin. The cells in T-75 cm^2 culture flasks were incubated with 5% CO2 at 37° C. in a humidified incubator. The HaCaT cells were grown to expected confluency and then they were harvested by trypsinizing the cell with 0.25% trypsin/EDTA and incubated at 37° C. for 5 min to obtain the complete cell detachment. After the incubation, cell pellets were resuspended, and washed twice with 1×PBS. The cell suspension in 1×PBS was counted and adjusted to 1×10^5/mL. A HaCaT keratinocyte suspension (100 μL in 1×PBS) with a cell concentration of 1×10^5 cells/mL) and a test solution (100 μL in milli-Q water) were combined in each well of two 96-well plates. Test solutions with a desired concentration were prepared by serial dilutions of the stock solutions with 1×PBS.
For the cytotoxicity experiment, cells were seeded at a density of 5×10^3 in 200 ul of medium into each well of 96-well plates. Cells were seeded as three sets of four replicates for each concentration. After 24 h of incubation, the cells were washed with PBS and cultured for 72 h with 200 ul of 10% FBS containing DMEM medium, together with the different concentrations of the test compounds ranging from 500 μM to 1.9 μM for PPD and analogues 1-5 and standard in a serial dilution. Then the medium was removed and 100 μl of MTT [3-(4,5-dimethylthiazol-2yl)-2,5-diphenyl-2H-tetrazolium bromide](1 mg/ml) (Alfa Aesar, Singapore) in PBS was added. At the end of 4 h incubation, the plates were removed from the incubator and plates were shaken for 5 min. The absorbance at 570 nm was determined using Bio-Tek plate reader. The cell viability rates were calculated from absorbance readings and represented as percentages of control value (untreated cells).

The test system of data set [1] is cysteine peptide (Ac-RFAACAA-COOH). Briefly: Direct Peptide Reactivity Assay, cysteine peptide. To be noted: for % of Cysteine depletion, Avg / % of Cysteine depletion, Rep 2 / % of Cysteine depletion, Rep 3 / Reactivity Class: 1:10; for % of Cysteine depletion, Rep 1: peptide 0.02 mM : test chemical 0.2 mM (1:10); for Reactivity Class: cysteine. The procedure: For cysteine DPRA, an additional step was performed.
(§1) The mass spectrometric analysis was performed by use of a AB SCIEX QTRAP 5500 tandem mass spectrometry (MS/MS) system (AB SCIEX, Framingham, Mass., USA) operating in triple quadrupole positive mode (ESI+) equipped with an AB Sciex Turbo Ion Spray interface. Acquisition and analysis of data were performed with Analyst software ver. 1.6.2 (Applied Biosystems).

Data set [2] deals with lysine peptide (Ac-RFAAKAA-COOH). Briefly: Direct Peptide Reactivity Assay, lysine peptide. To be noted: for % of Lysine depletion, Avg / % of Lysine depletion, Rep 2 / % of Lysine depletion, Rep 3 / Reactivity Class: 1:50; for % of Lysine depletion, Rep 1: peptide 0.02 mM : test chemical 1 mM (1:50); for Reactivity Class: lysine. On the procedure:
as §1

Data set [3] can be described thus: Skin permeation in vertical Franz diffusion cells. Particulars: 8 h; for Skin permeation (in words): porcine skin. In kind it is in vitro ADME, porcine. The procedure: Porcine ears were generously provided by the NUS Department of Surgery. The ears were frozen at −80° C. until use (up to 3 months) and thawed at room temperature on the day preceding the experiment. Prior to the experiment, the skin was separated from the cartilage and dermatomed to a thickness of ˜1.0 mm using an Acculan™ 3Ti dermatome (Aesculap, Inc., B. Braun, USA).
The PPD and derivatives were dissolved in deionized water at 1% w/v. The PPD and PPD derivatives 1-5 solutions were purged with argon gas to minimize oxidation of the donor solution.
Skin penetration studies were carried out using vertical Franz diffusion cells (PermeGear, USA) immersed in a 37° C. water bath. The donor and receptor volumes were 900 µL and 5 mL, respectively; the mean surface area of penetration was 0.64 cm^2. Upon insertion of the skin pieces into the Franz cells, the skin was equilibrated for 45 min with PBS in the receptor compartment. After equilibration, the skin's trans-epidermal water loss (TEWL) was measured using an Aquaflux AF300 (Biox, UK) to assess the integrity of the skin's stratum corneum barrier. The donor solution, consisting of PPD or derivative 1-5 (n=3 Franz cells each), was then added to the donor compartment and the penetration experiments were conducted for 8 h. The receptor solutions were continuously stirred with magnetic stirrers. At fixed time points, aliquots of 200 μL were taken from the receptor solution of each cell and the receptor solution topped up with 200 μL of fresh PBS. At the end of the experiment, the donor and receptor solutions were removed and the cells dismantled. For the purpose of mass balance on the PPD, PPD derivatives 1-5 the skin pieces and swabs of their outer surfaces were collected and stored in acetonitrile for PPD or derivative 1-5 extraction. The donor solution as well as PBS used to thoroughly wash each part of the Franz cells were also collected.
PPD, PPD derivatives 1-5 and metabolite concentrations in all permeation and mass balance samples were measured by LCMS. PPD steady state fluxes and permeability coefficients were calculated by fitting the solution to Fick's second law of diffusion at the steady state to the linear part of each experimental cumulative amount curve.
The validated method LCMS was applied to quantify PPD, PPD derivative 1-5 and metabolites from skin permeation study samples. FIGS. 3 and 4 show LCMS spectra for the identification of PPD and PPD derivatives 1 and 2 and metabolites from skin permeation study experiment.

Data set [4] has as its system cysteine and lysine peptides. The data set is described as follows: Direct Peptide Reactivity Assay, mean of cysteine and lysine depletion (FIG. 12).
Experimental: Direct reactivity of test chemical to lysine-based synthetic peptide was determined in reactions containing 100 mM ammonium acetate buffer (pH 10.2). The final concentration of lysine peptide was 20 μM in a final reaction volume of 0.3 ml. Direct reactivity of test chemicals to cysteine-based synthetic peptide was determined in 100 mM Sodium Phosphate buffer of pH 7.5.
For the DPRA, incubation mixtures were prepared using each peptide to test compound ratios of both 1:10 for cysteine peptide and 1:50 for lysine peptide, according to Table 19. […] Sample reactions were initiated by adding 3 μl of a test chemical stock solution for cysteine and 15 μl stock solution for lysine peptide. These mixtures were then placed in a temperature-controlled shaking incubator at 25° C.
At each time point (20 mins/24 hours), the incubation mixtures were quenched with 75 μL of 95% ACN/H2O, and mildly vortexed (600 rpm, 3 seconds). For Lysine DPRA experiment, 10 μl of aliquot was diluted with 2% ACN/H2O, vortexed and stored at −80° C. until analysis by LC-MS/MS. For cysteine DPRA, an additional step was performed. 10 μl of cysteine reaction mixture, at time points 20 min and 24 h were diluted in 180 μl of 2% ACN/H2O. To which, a 10 μl aliquot of a 16 mM dithiothreitol solution (prepared in water) was then added, and samples were heated in a 45° C. oven for 30 min, then allowed to cool to room temperature prior to analysis. The peptide depletion (PD) percentage was obtained using this equation.
The mark [5] stands for this setting: Homo sapiens, HaCaT, 72 h, 72 h incubation, MTT.

Bounds are passed on as bounds.

Broadly, the IC50 is the concentration that gives 50% inhibition. A lower IC50 goes with greater potency.

In the data set on HaCaT cells (setting [5]), `CCOC(=O)/C=C\C(=O)OCC` [Diethylmaleate, reference compound] yielded an IC50 of more than 100 µM.

In the data set with HaCaT cells (setting [5]), `COc1cccc2c1C(=O)c1c(O)c3c(c(O)c1C2=O)C[C@@](O)(C(=O)CO)C[C@@H]3O[C@H]1C[C@H](N)[C@H](O)[C@H](C)O1` [Doxorubicin, reference compound] displayed a concentration for half-maximal inhibition (IC50) of less than 0.39 µM.

Turning to `OC[C@H]1O[C@@H](O[C@H]2[C@H](O)[C@@H](O)C(O)O[C@@H]2CO)[C@H](O)[C@@H](O)[C@H]1O` (some centres unmarked) [Lactose, reference compound], in data set [1] (20 min), the “% of Cysteine depletion, Avg” value worked out at 0%; the “% of Cysteine depletion, Rep 2” value was found to be 0%; the “% of Cysteine depletion, Rep 3” value turned out to be 0%; the “% of Cysteine depletion, Rep 1” value worked out at 0%. Moreover, the “Reactivity Class” value in data set [1] (20 min) is reported as “No or Minimal”. Moreover, in data set [1] (24 h), the “% of Cysteine depletion, Avg” value was determined as 0.6%; the “% of Cysteine depletion, Rep 2” value was determined as 1%; the “% of Cysteine depletion, Rep 3” value is listed as 1%; the “% of Cysteine depletion, Rep 1” value amounted to 0%. For the same compound, in data set [1] (24 h), the “Reactivity Class” value is reported as “No or Minimal”. In data set [2] (20 min), the “% of Lysine depletion, Avg” value is recorded as 0%; the “% of Lysine depletion, Rep 2” value was determined as 0%; the “% of Lysine depletion, Rep 3” value was 0%; the “% of Lysine depletion, Rep 1” value was determined as 0%. The “Reactivity Class” value in data set [2] (20 min) is “No or Minimal”. In data set [2] (24 h), the “% of Lysine depletion, Avg” value worked out at 0%; the “% of Lysine depletion, Rep 2” value was determined as 0%; the “% of Lysine depletion, Rep 3” value worked out at 0%; the “% of Lysine depletion, Rep 1” value turned out to be 0%. The “Reactivity Class” value in data set [2] (24 h) was “No or Minimal”.

`CC1=CC(=O)c2ccccc2C1=O` [Menadione, reference compound] returned an IC50 in the data set on HaCaT cells (setting [5]) of 3.56 µM.

Regarding `CCCCCCOc1cc(Nc2ccc(N)cc2)ccc1N` [PPD derivative 5, 4-Amino-(3-hexyloxy)-4′-aminodiphenylamine], in data set [3] (1% W/V applied), the “% Parent compound Penetrated (mean)” value turned out to be 0%, the “% Parent compound Recovery (mean)” value worked out at 98% and the “% converted to metabolite (mean)” value came to 0.0118%. Besides, the “Skin permeation (in words)” value in data set [3] was “did not permeate the skin at all”. Besides, the “Skin permeation (in words)” value in data set [3] (listed as PPD 5) was “impermeable”. This compound also registered an IC50 in the data set with HaCaT cells (72 h incubation, MTT) of 14.3 µM. Moreover, in data set [1] (20 min), the “% of Cysteine depletion, Avg” value is recorded as 51.2%; the “% of Cysteine depletion, Rep 2” value came to 52.9%; the “% of Cysteine depletion, Rep 3” value worked out at 49.9%; the “% of Cysteine depletion, Rep 1” value was determined as 50.9%. Also, in data set [1] (24 h), the “% of Cysteine depletion, Avg” value is listed as 53.8%; the “% of Cysteine depletion, Rep 2” value is listed as 53.8%; the “% of Cysteine depletion, Rep 3” value amounted to 54.1%; the “% of Cysteine depletion, Rep 1” value amounted to 53.5%. Further, in data set [2] (20 min), the “% of Lysine depletion, Avg” value is 6.3%; the “% of Lysine depletion, Rep 2” value was determined as 5.92%; the “% of Lysine depletion, Rep 3” value is 6.2%; the “% of Lysine depletion, Rep 1” value worked out at 6.76%. Also, in data set [2] (20 min), the “Reactivity Class” value is on record as “No or Minimal”. For the same compound, in data set [2] (24 h), the “% of Lysine depletion, Avg” value came out at 14.3%; the “% of Lysine depletion, Rep 2” value worked out at 15.2%; the “% of Lysine depletion, Rep 3” value turned out to be 13.8%; the “% of Lysine depletion, Rep 1” value is recorded as 13.8%. In data set [2] (24 h), the “Reactivity Class” value was “Low”.

The compound `Cc1ccc(NCc2ccc(Nc3ccc(Nc4ccc(N)cc4)cc3)cc2)cc1` [PPD derivative 10, N^1-[4-(4-tolylaminomethyl)phenyl]-N^4-(4-aminophenyl)-1,4-benzenediamine] returned an IC50 in the data set with HaCaT cells (setting [5]) of 1.8 µM. Besides, the “Sensitizing potential predicted from mean peptide depletion” value in data set [4] (cysteine 1:10 / lysine 1:50 model) is reported as “weak sensitizer”. Besides, the Mean peptide depletion in data set [4] (mean of cysteine (1:10) and lysine (1:50), FIG. 12) amounted to 23.0%.

The compound `O=[N+]([O-])c1ccc(CNc2ccc(Nc3ccc(NCc4ccc([N+](=O)[O-])cc4)cc3)cc2)cc1` [PPD derivative 11, N^4-[(4-nitrophenyl)methyl]-N^1-[4-[(4-nitrophenyl)methylamino]phenyl]-benzene-1,4-diamine] gave an IC50 with HaCaT cells (setting [5]) of 6.4 µM.

In the data set on HaCaT cells (setting [5]), `COc1ccc(CNc2ccc(Nc3ccc(NCc4ccc(OC)cc4)cc3)cc2)cc1` [PPD derivative 12] had an IC50 of 4.3 µM.

Take `Cc1ccc(CNc2ccc(Nc3ccc(NCc4ccc(C)cc4)cc3)cc2)cc1` [PPD derivative 13, N^4-(p-tolylmethyl)-N^1-[4-(p-tolylmethylamino)phenyl]benzene-1,4-diamine]: the IC50 with HaCaT cells (setting [5]) worked out at 5.2 µM.

On to `Oc1ccc(CNc2ccc(Nc3ccc(NCc4ccc(O)cc4)cc3)cc2)cc1` [PPD derivative 14, 4-[[4-[4-[(4-hydroxyphenyl)methylamino]anilino]anilino]methyl]phenol], for which, in the data set with HaCaT cells (setting [5]), the IC50 is 5.4 µM.

Take `CCC(C)(C)C(=O)O[C@H]1C[C@@H](C)C=C2C=C[C@H](C)[C@H](CC[C@@H]3C[C@@H](O)CC(=O)O3)[C@H]21` [Simvastatin, reference compound]: the IC50 was 9.15 µM in the data set on HaCaT cells (Homo sapiens, HaCaT) and 28.6 µM in the data set with HaCaT cells (setting [5]).

`CC(C)(C)c1cc(O)ccc1O` [Tertbutylhydroquinone, reference compound] showed an IC50 in the data set with HaCaT cells (setting [5]) of 27.9 µM.

Turning to `O=C1C=CC(=O)C=C1` [p-Benzoquinone, p-benzoquinone, reference compound], in data set [1] (20 min), the “% of Cysteine depletion, Avg” value is 72.8%; the “% of Cysteine depletion, Rep 2” value came to 73.7%; the “% of Cysteine depletion, Rep 3” value is recorded as 72.0%; the “% of Cysteine depletion, Rep 1” value was determined as 72.7%. Besides, the “Reactivity Class” value in data set [1] (20 min) was “High”. In data set [1] (24 h), the “% of Cysteine depletion, Avg” value is given as 89.7%; the “% of Cysteine depletion, Rep 2” value was 89.5%; the “% of Cysteine depletion, Rep 3” value was found to be 90%; the “% of Cysteine depletion, Rep 1” value amounted to 89.6%. For the same compound, in data set [1] (24 h), the “Reactivity Class” value is on record as “High”. In data set [2] (20 min), the “% of Lysine depletion, Avg” value came out at 21.0%; the “% of Lysine depletion, Rep 2” value stood at 20.6%; the “% of Lysine depletion, Rep 3” value was 20%; the “% of Lysine depletion, Rep 1” value is recorded as 22.5%. Also, the “Reactivity Class” value in data set [2] (20 min) is “Low”. Moreover, in data set [2] (24 h), the “% of Lysine depletion, Avg” value came to 88.7%; the “% of Lysine depletion, Rep 2” value was 87.5%; the “% of Lysine depletion, Rep 3” value is given as 91.6%; the “% of Lysine depletion, Rep 1” value turned out to be 87.0%. The “Reactivity Class” value in data set [2] (24 h) is “High”.
